System: moderate to severe papular pustular rosacea with perioral dermatitis
Test: Treatment of a subject with the formulation, clinical examination after 1 month
Format: in vivo, human
Conditions: same subject, treatment history before the formulation, as reported at first visit
Excerpt: The lesions consisted of papules and pimples, was severe in severity, and had been present for months. […] The subject was having a bad “acne” flare up, and stated that their face was itchy and red. The subject had been treated for “acne” for a long time.
The subject was diagnosed with moderate to severe papular pustular rosacea with perioral dermatitis.
The subject was given the formulation of Example 1, and the subject administered it twice daily (AM and PM) and was seen again 1 month later, at which time their condition had improved. The subject's condition at this later examination was recorded in the images in FIGS. 2A to 2C.

CC1=C(/C=C/C(C)=C/C=C/C(C)=C/C(=O)O)C(C)(C)CCC1 [tretinoin]
improvement of "acne" lesions with previously tried treatment: no improvement

Reference: patent publication US20220202841A1, “DERMATOLOGICAL FORMULATIONS FOR TREATMENT OF DERMATITIS” (priority 2020, published 2022)
